# Patent US6664251B2, “Benzothiazine derivative” (Daiichi Suntory Pharma Co., Ltd., priority 1993, dated 2003)
# Assays:
# serotonin-2 receptor = test: Anti-serotonin action (anti-5-HT action): contraction of isolated superior mesenteric artery induced by serotonin; settings: contraction induced by 10^−5 M serotonin (5-HT) taken as 100%, Hartley male guinea pig superior mesenteric artery; for Anti 5-HT action (% of Control) 10^−6 M: test drug 10^−6 M; for Anti 5-HT action (% of Control) 10^−7 M: test drug 10^−7 M
# Experimental: (1) Anti-Serotonin Action (Anti-5-HT Action)
# A preparation cut in a helical form was suspended under 0.3 g load in a Magnus cylinder filled with the Tyrode solution which had been aerated with a gas mixture of 95% O2+5% CO2 and maintained at 37° C. Using an isometric transducer (“UL-10”, manufactured by SHINKOH K.K.) and a pressure preamplifier (“DSA-605A”, manufactured by SHINKOH K.K.), variations in tension were measured. The isometric tensions were recorded on a pen-writing recorder (“VP-6537A”, manufactured by NATIONAL K.K.). Taking the contraction induced by 10^−5 M serotonin (5-HT) as 100%, the percent contractions in the presence of each test drug at 10^−7 and 10^−6 M were determined as anti-5-HT action.
# α1 receptor = test: Anti-α1 action: tonic contraction of isolated thoracic aorta induced by norepinephrine; settings: tonic contraction induced by 10^−5 M norepinephrine (NE) taken as 100%, Hartley male guinea pig thoracic aorta; for Anti α1 action (% of Control) 10^−7 M: test drug 10^−7 M; for Anti α1 action (% of Control) 10^−8 M: test drug 10^−8 M
# Experimental: The thoracic aorta of each Hartley male guinea pig (body weight: 300-500 g) was excised. A preparation cut in a helical form was suspended under 1 g load in a Magnus cylinder filled with the Tyrode solution which had been aerated with a gas mixture of 95% O2+5% CO2 and maintained at 37° C. Using an isometric transducer (“TB-612J”, manufactured by NIHON KOHDEN) and a pressure preamplifier (“AP-620G”, manufactured by NIHON KOHDEN), variations in tension were measured. The isometric tensions were recorded on a thermal pen-writing recorder (“WT-647G”, manufactured by NIHON KOHDEN).
# Taking the tonic contraction induced by 10^−5 M norepinephrine (NE) as 100%, the percent contractions upon addition of each test drug at 10^−8 and 10^−7 M were determined as anti-α1 action.
Compound,Anti 5-HT action (% of Control) 10^−6 M (serotonin-2 receptor),Anti 5-HT action (% of Control) 10^−7 M (serotonin-2 receptor),Anti α1 action (% of Control) 10^−7 M (α1 receptor),Anti α1 action (% of Control) 10^−8 M (α1 receptor)
"O=S1(=O)c2ccccc2C2(CN1CCCN1CCN(c3ccc(O)cc3)CC1)OCCO2 [Compound No. 37, 2-[3-[4-(4-hydroxyphenyl)piperazin-1-yl]propyl]-3,4-dihydro-2H-1,2-benzothiazin-4-one 1,1-dioxide ethylene acetal]",8.3 % of Control,15.7 % of Control,96.2 % of Control,100 % of Control
"COC1=CN(CCCN2CCN(c3ccc(F)cc3)CC2)S(=O)(=O)c2ccccc21 [Compound No. 56, 2-[3-[4-(4-fluorophenyl)piperazin-1-yl]propyl]-4-methoxy-2H-1,2-benzothiazine 1,1-dioxide]",16.9 % of Control,60.8 % of Control,69.5 % of Control,95.4 % of Control
"COc1ccc2c(c1)C1(CN(CCCN3CCC(C(=O)c4ccc(F)cc4)CC3)S2(=O)=O)OCCO1 [Compound No. 116, 2-[3-[4-(4-fluorobenzoyl)piperidino]-propyl]-6-methoxy-3,4-dihydro-2H-1,2-benzothiazin-4-one 1,1-dioxide ethylene acetal]",13.9 % of Control,40.2 % of Control,88.3 % of Control,100.7 % of Control
"COC1CN(CCCN2CCN(c3ccc(F)cc3)CC2)S(=O)(=O)c2ccccc21 (stereo not drawn) [Compound No. 57, 2-[3-[4-(4-fluorophenyl)piperazin-1-yl]propyl]-4-methoxy-3,4-dihydro-2H-1,2-benzothiazine 1,1-dioxide]",10.0 % of Control,22.0 % of Control,81.6 % of Control,97.3 % of Control
"COc1ccc2c(c1)S(=O)(=O)N(CCCN1CCC(C(=O)c3ccc(F)cc3)CC1)CC21OCCO1 [Compound No. 120, 2-[3-[4-(4-fluorobenzoyl)piperidino]propyl]-7-methoxy-3,4-dihydro-2H-1,2-benzothiazin-4-one 1,1-dioxide ethylene acetal]",20.3 % of Control,51.6 % of Control,71.6 % of Control,93.2 % of Control
"COc1cccc2c1C1(CN(CCCN3CCN(c4ccc(O)cc4)CC3)S2(=O)=O)OCCO1 [Compound No. 111, 2-[3-[4-(4-hydroxyphenyl)piperazin-1-yl]propyl]-5-methoxy-3,4-dihydro-2H-1,2-benzothiazin-4-one 1,1-dioxide ethylene acetal]",,10.9 % of Control,98.6 % of Control,100.9 % of Control
"O=S1(=O)c2ccccc2C2(CN1CCCN1CCN(c3ccc(F)cc3)CC1)OCCO2 [Compound No. 62, 2-[3-[4-(4-fluorophenyl)piperazin-1-yl]propyl]-3,4-dihydro-2H-1,2-benzothiazin-4-one 1,1-dioxide ethylene acetal]",3.3 % of Control,14.1 % of Control,53.1 % of Control,98.1 % of Control
"O=C(c1ccc(F)cc1)C1CCN(CCCN2CC(O)c3ccccc3S2(=O)=O)CC1 (stereo not drawn) [Compound No. 76, 2-[3-[4-(4-fluorobenzoyl)piperidino]-propyl]-4-hydroxy-3,4-dihydro-2H-1,2-benzothiazine 1,1-dioxide]",21.7 % of Control,53.9 % of Control,88.2 % of Control,100 % of Control
"COC1(OC)CN(CCCN2CCN(c3ccc(F)cc3)CC2)S(=O)(=O)c2ccccc21 [Compound No. 55, 2-[3-[4-(4-fluorophenyl)piperazin-1-yl]propyl]-4,4-dimethoxy-3,4-dihydro-2H-1,2-benzothiazine 1,1-dioxide]",7.4 % of Control,23.4 % of Control,89.2 % of Control,100 % of Control
"COc1cccc2c1C1(CN(CCCN3CCN(c4ccc(F)cc4)CC3)S2(=O)=O)OCCO1 [Compound No. 110, 2-[3-[4-(4-fluorophenyl)piperazin-1-yl]propyl]-5-methoxy-3,4-dihydro-2H-1,2-benzothiazin-4-one 1,1-dioxide ethylene acetal]",,5.6 % of Control,81.1 % of Control,100 % of Control
"COc1ccc2c(c1)C1(CN(CCCN3CCN(c4ccc(F)cc4)CC3)S2(=O)=O)OCCO1 [Compound No. 115, 2-[3-[4-(4-fluorophenyl)piperazin-1-yl]propyl]-6-methoxy-3,4-dihydro-2H-1,2-benzothiazin-4-one 1,1-dioxide ethylene acetal]",14.1 % of Control,63.0 % of Control,62.3 % of Control,100.4 % of Control
"O=S1(=O)c2ccccc2C2(CN1CCCN1CCN(c3ccccn3)CC1)OCCO2 [Compound No. 46, 2-[3-[4-(2-pyridyl)piperazin-1-yl]-propyl]-3,4-dihydro-2H-1,2-benzothiazin-4-one 1,1-dioxide ethylene acetal]",5.5 % of Control,39.8 % of Control,97.4 % of Control,100 % of Control
"O=S1(=O)c2ccccc2C2(CN1CCCN1CCN(c3ccccc3F)CC1)OCCO2 [compound 35, 2-[3-[4-(2-fluorophenyl)piperazin-1-yl]propyl]-3,4-dihydro-2H-1,2-benzothiazin-4-one 1,1-dioxide ethylene acetal]",7.5 % of Control,38.3 % of Control,89.3 % of Control,99.0 % of Control
"COc1cccc2c1C1(CN(CCCN3CCN(c4ccc(F)cc4)CC3)S2(=O)=O)SCCS1 [Compound No. 123, 2-[3-[4-(4-fluorophenyl)piperazin-1-yl]propyl]-5-methoxy-3,4-dihydro-2H-1,2-benzothiazine-4-spiro-2′-(1′,3′-dithiolane) 1,1-dioxide]",,49.3 % of Control,13.0 % of Control,97.9 % of Control
"O=S1(=O)c2cccc(Cl)c2C2(CN1CCCN1CCN(c3ccc(O)cc3)CC1)OCCO2 [Compound No. 114, 5-chloro-2-[3-[4-(4-hydroxyphenyl)piperazin-1-yl]propyl]-3,4-dihydro-2H-1,2-benzothiazin-4-one 1,1-dioxide ethylene acetal]",,23.5 % of Control,98.9 % of Control,101.1 % of Control
"O=S1(=O)c2cccc(Cl)c2C2(CN1CCCN1CCN(c3ccc(F)cc3)CC1)OCCO2 [Compound No. 113, 5-chloro-2-[3-[4-(4-fluorophenyl)piperazin-1-yl]propyl]-3,4-dihydro-2H-1,2-benzothiazin-4-one 1,1-dioxide ethylene acetal]",,49.5 % of Control,89.3 % of Control,98.3 % of Control
"COc1cccc2c1C1(CN(CCN3CCN(c4ccc(F)cc4)CC3)S2(=O)=O)OCCO1 [Compound No. 109, 2-[2-[4-(4-fluorophenyl)piperazin-1-yl]ethyl]-5-methoxy-3,4-dihydro-2H-1,2-benzothiazin-4-one 1,1-dioxide ethylene acetal]",,10.5 % of Control,96.1 % of Control,99.3 % of Control
"O=S1(=O)c2ccccc2C2(CN1CCCN1CCN(c3ccc(F)cc3)CC1)OCCCO2 [Compound No. 64, 2-[3-[4-(4-fluorophenyl)piperazin-1-yl]propyl]-3,4-dihydro-2H-1,2-benzothiazine-4-spiro-2′-(1′,3′-dioxane) 1,1-dioxide]",13.8 % of Control,24.8 % of Control,84.9 % of Control,97.3 % of Control
